US7037644B1, “Means and methods for monitoring non-nucleoside reverse transcriptase inhibitor antiretroviral therapy and guiding therapeutic decisions in the treatment of HIV/AIDS” (ViroLogic, Inc., priority 1998, dated 2006)
Entries after “also recorded” stand apart in the source; their conditions may differ.

Legend:
Experiment in all cases: Phenotypic susceptibility assay (site directed mutant RTV)
Type in all cases: cell-based, HIV-1
Y181I-RTV = details: for loss of susceptibility (fold, IC50) vs wild type control RTV: Y181I alone; for change in susceptibility: mutation at codon 181 (isoleucine)
Description: (§1) The resistance test vectors containing a functional luciferase gene cassette were constructed and host cells were transfected with the resistance test vector DNA. The resistant test vectors contained patient-derived reverse transcriptase and protease sequences that were either susceptible or resistant to the antiretroviral agents, such as nucleoside reverse transcriptase inhibitors, non-nucleoside reverse transcriptase inhibitors and protease inhibitors. The resistance test vector viral particles produced by transfecting the resistance test vector DNA into host cells, either in the presence or absence of protease inhibitors, were used to infect target host cells grown either in the absence of NRTI or NNRTI or in the presence of increasing concentrations of the drug. The amount of luciferase activity produced in infected target host cells in the presence of drug was compared to the amount of luciferase produced in infected target host cells in the absence of drug. Drug resistance was measured as the amount of drug required to inhibit by 50% the luciferase activity detected in the absence of drug (inhibitory concentration 50%, IC50). The IC50 values were determined by plotting percent drug inhibition vs. log10 drug concentration.
(§2) Host cells were seeded in 10-cm-diameter dishes and were transfected several days after plating with resistance test vector plasmid DNA and the envelope expression vector. Transfections were performed using a calcium-phosphate precipitation procedure. The cell culture media containing the DNA precipitate was replaced with fresh medium, from one to 24 hours, after transfection. Cell culture media containing resistance test vector viral particles was harvested one to four days after transfection and was passed through a […] filter before being stored at […]. HIV capsid protein (p24) levels in the harvested cell culture media were determined by an EIA method as described by the manufacturer (SIAC; Frederick, Md.). Before infection, target cells (293 and 293/T) were plated in cell culture media. Control infections were performed using cell culture media from mock transfections (no DNA) or transfections containing the resistance test vector plasmid DNA without the envelope expression plasmid. One to three or more days after infection the media was removed and cell lysis buffer (Promega) was added to each well. Cell lysates were assayed for luciferase activity (FIG. 3). The inhibitory effect of the drug was determined using the following equation: % luciferase inhibition=1−(RLUluc [drug]÷RLUluc)×100 where RLUluc [drug] is the relative light unit of luciferase activity in infected cells in the presence of drug and RLUluc is the Relative Light Unit of luciferase activity in infected cells in the absence of drug. IC50 values were obtained from the sigmoidal curves that were generated from the data by plotting the percent inhibition of luciferase activity vs. the log10 drug concentration. The drug inhibition curves are shown in (FIG. 3).
The Y181I mutationwas introduced into the resistance test vector using the mega-primer method for site-directed mutagenesis (Sakar and Sommar, Ibid). A resistance test vector containing the Y181I mutation (Y181I-RTV) was then tested using the phenotypic assay described earlier and the results were compared to those determined using a genetically defined resistance test vector that was wild type at position 181. We determined the pattern of phenotypic susceptibility to the NNRTIs, delavirdine, nevirapine and efavirenz, in the Y181I-RTV.

Y181C-A98G-RTV = details: for loss of susceptibility (fold, IC50) vs wild type control RTV: Y181C and A98G; for change in susceptibility: mutations at codons 181 and 98
Description: as §1, §2
The Y181C and A98G mutations were introduced alone and in combination into resistance test vectors using the mega-primer method for site-directed mutagenesis (Sakar and Sommar, Ibid.). Resistance test vectors containing the Y181C mutation (Y181C-RTV) and the A98G mutation (A98G-RTV) and both mutations (Y181C-A98G-RTV) were then tested using the phenotypic assay described earlier and the results were compared to those determined using a genetically defined resistance test vector that was wild type at position 181 and 98. We determined the pattern of phenotypic susceptibility to the NNRTIs, delavirdine, neviraphine and efavirenz, in the three vectors.

K101E-G190S-RTV = details: for change in susceptibility (fold, IC50) vs wild type control RTV: K101E and G190S; for change in susceptibility: mutations at codons 101 and 190 (190S)
Description: as §1, §2
(§3) The K101E and G190S mutations were introduced alone and in combination into resistance test vectors using the megaprimer method for site-directed mutagenesis (Sakar and Sommar, Ibid.). Resistance test vectors containing the K101E mutation (K101E-RTV), the G190S mutation (G190S-RTV) were then tested using the phenotypic assay described earlier and the results were compared to those determined using a genetically defined resistance test vector that was wild type at positions 101 and 190. We determined the pattern of phenotypic susceptibility to the NNRTIs, delavirdine, nevirapine and efavirenz, in all three vectors.

K101E-RTV = details: K101E alone
Description: as §1, §2, §3

K101E-G190A-RTV = details: for change in susceptibility (fold, IC50) vs wild type control RTV: K101E and G190A; for change in susceptibility: mutations at codons 101 and 190 (190A)
Description: as §1, §2
(§4) The K101E, K103N and G190A mutations were introduced alone and in combination into resistance test vectors using the mega-primer method for site-directed mutagenesis (Sakar and Sommar, Ibid.).

K103N-G190A-RTV = details: for loss of susceptibility (fold, IC50) vs wild type control RTV: K103N and G190A; for change in susceptibility: mutations at codons 103 and 190
Description: as §1, §2, §4

V106A-RTV = details: V106A alone
Description: as §1, §2
(§5) The mutations V106A, V189L, V181C an F227L were introduced alone and in combination into resistance test vectors using the mega-primer method for site-directed mutagenesis (Sakar and Sommar, Ibid.). Resistance test vectors containing the V106A mutation (V106A-RTV), the V189L mutation (V189L-RTV), the V181C mutation (V181C-RTV) and E227L mutation (F2271-RTV) and two mutations (V106A-Y181C-RTV) and (V106A-V189L-RTV) and (V106A-F227-RTV) and (V181C-F227-RTV) and three mutations, (V106A-Y181C-F227L-RTV) were then tested using the phenotypic assay described earlier and the results were compared to those determined using a genetically defined resistance test vector that was wild type at positions 106, 189, 181 and 227. We determined the pattern of phenotypic susceptibility to the NNRTIs, delavirdine, nevirapine and efavirenz, in all nine vectors.

V106A-V189L-RTV = details: for change in susceptibility (fold, IC50) vs wild type control RTV: V106A and V189L; for change in susceptibility: mutations at 106 and 189
Description: as §1, §2, §5

V106A-Y181C-RTV = details: for loss of susceptibility (fold, IC50) vs wild type control RTV: V106A and Y181C; for change in susceptibility: mutations at 106 and 181
Description: as §1, §2, §5

V189L-RTV = details: V189L alone
Description: as §1, §2, §5

Y181C-F227L-RTV = details: for change in susceptibility (fold, IC50) vs wild type control RTV: Y181C and F227L, below 1 = increased susceptibility; for change in susceptibility: mutations at 181 and 227
Description: as §1, §2, §5

SMILES | loss of susceptibility (fold, IC50) vs wild type control RTV (Y181I-RTV) [fold] | change in susceptibility (Y181I-RTV) | loss of susceptibility (fold, IC50) vs wild type control RTV (Y181C-A98G-RTV) | change in susceptibility (Y181C-A98G-RTV) | change in susceptibility (fold, IC50) vs wild type control RTV (K101E-G190S-RTV) | change in susceptibility (K101E-G190S-RTV) | loss of susceptibility (fold, IC50) vs wild type control RTV (K101E-RTV) [fold] | change in susceptibility (fold, IC50) vs wild type control RTV (K101E-G190A-RTV) | change in susceptibility (K101E-G190A-RTV) | loss of susceptibility (fold, IC50) vs wild type control RTV (K103N-G190A-RTV) | change in susceptibility (K103N-G190A-RTV) | change in susceptibility (fold, IC50) vs wild type control RTV (V106A-RTV) [fold] | change in susceptibility (fold, IC50) vs wild type control RTV (V106A-V189L-RTV) [fold] | change in susceptibility (V106A-V189L-RTV) | loss of susceptibility (fold, IC50) vs wild type control RTV (V106A-Y181C-RTV) | change in susceptibility (V106A-Y181C-RTV) | change in susceptibility (fold, IC50) vs wild type control RTV (V189L-RTV) [fold] | change in susceptibility (fold, IC50) vs wild type control RTV (Y181C-F227L-RTV) [fold] | change in susceptibility (Y181C-F227L-RTV)
CC(C)Nc1cccnc1N1CCN(C(=O)c2cc3cc(NS(C)(=O)=O)ccc3[nH]2)CC1 [delavirdine] | 20 | moderate decrease | 240 fold | significant decrease | 1.4 fold | no change | 5 | 2 fold | slight loss of susceptibility; also recorded: no change | 40 fold | slight loss of susceptibility; also recorded: moderate decrease | 5 | 3 | slight decrease; also recorded: alight decrease | 100 fold | significant decrease | 1.8 | 0.89 | increase
O=C1Nc2ccc(Cl)cc2[C@@](C#CC2CC2)(C(F)(F)F)O1 [efavirenz] | 1.4 | no change | 7 fold | substantial decrease; also recorded: slight decrease | greater than 250 fold | substantial decrease | 5 | 120 fold | significant decrease | 215 fold | significant decrease | 1.7 | 1 | no change | 4 fold | slight decrease | 1.3 | 0.99 | increase
Cc1ccnc2c1NC(=O)c1cccnc1N2C1CC1 [nevirapine] | 740 | significant decrease | greater than 800 fold | substantial decrease | greater than 800 fold | substantial decrease | 12 | greater than 800 fold | substantial decrease | greater than 800 fold | substantial decrease | 60 | 50 | moderate decrease | greater than 800 fold | substantial decrease | 1.3 | 285 | significant decrease
